Reference: PubChem BioAssay AID226 (DTP/NCI, 2004)
Values joined by “and” are separate entries in the source; they are usually repeats but may differ in a detail not shown here. Equal entries are not always repeated. Toxic doses and inconclusive results are not listed.

Test system: B6C3F1 mice, intracerebral ependymoblastoma, median survival T/C
Experiment: NCI In Vivo Anticancer Drug Screen. Data for tumor model Ependymoblastoma (intracerebral) in B6C3F1 mice
Settings: endpoint: median survival time, higher = longer survival
Description: The antitumor activity of compounds was measured in mice bearing transplantable tumors. Survival or tumor size were measured and the results are expressed as the measurement made in the treated group (T) divided by the measurement made in the vehicle treated control group (C). The tumor model used in this assay is Ependymoblastoma (intracerebral) in B6C3F1 mice

[1] = dose: 100.0 mg/kg/injection, schedule: Q01DX005 (ip), vehicle: saline with Tween-80
[2] = dose: 128.0 mg/kg/injection, schedule: Q01DX005 (ip), vehicle: saline with Tween-80

Cc1cn(C2CC(O)C(CO)O2)c(=O)[nH]c1=O (stereo not given)
T/C (dose: 64.0 mg/kg/injection, schedule: Q01DX005 (ip), vehicle: suspension in saline): 104 % of control
T/C (dose: 125.0 mg/kg/injection, schedule: Q01DX003 (ip), vehicle: saline with Tween-80): 95 % of control
T/C (dose: 125.0 mg/kg/injection, schedule: Q04DX003 (ip), vehicle: saline with Tween-80): 111 % of control
T/C (dose: 128.0 mg/kg/injection, schedule: Q01DX005 (ip), vehicle: suspension in saline): 94 % of control
T/C (dose: 250.0 mg/kg/injection, schedule: Q01DX003 (ip), vehicle: saline with Tween-80): 99 % of control
T/C (dose: 250.0 mg/kg/injection, schedule: Q04DX003 (ip), vehicle: saline with Tween-80): 113 % of control
T/C (dose: 256.0 mg/kg/injection, schedule: Q01DX005 (ip), vehicle: suspension in saline): 95 % of control
T/C (dose: 500.0 mg/kg/injection, schedule: Q01DX003 (ip), vehicle: saline with Tween-80): 95 % of control
T/C (dose: 500.0 mg/kg/injection, schedule: Q04DX003 (ip), vehicle: saline with Tween-80): 92 % of control and 120 % of control
T/C (dose: 512.0 mg/kg/injection, schedule: Q01DX005 (ip), vehicle: suspension in saline): 92 % of control
T/C (dose: 800.0 mg/kg/injection, schedule: Q01DX005 (ip), vehicle: saline with Tween-80): 98 % of control
T/C (dose: 1000.0 mg/kg/injection, schedule: Q01DX003 (ip), vehicle: saline with Tween-80): 107 % of control
T/C (dose: 1000.0 mg/kg/injection, schedule: Q04DX003 (ip), vehicle: saline with Tween-80): 106 % of control and 112 % of control
T/C (dose: 1024.0 mg/kg/injection, schedule: Q01DX005 (ip), vehicle: suspension in saline): 103 % of control
T/C (dose: 1600.0 mg/kg/injection, schedule: Q01DX005 (ip), vehicle: saline with Tween-80): 101 % of control
T/C (dose: 2000.0 mg/kg/injection, schedule: Q01DX003 (ip), vehicle: saline with Tween-80): 97 % of control
T/C (dose: 2000.0 mg/kg/injection, schedule: Q04DX003 (ip), vehicle: saline with Tween-80): 116 % of control and 89 % of control
T/C (dose: 3000.0 mg/kg/injection, schedule: Q01DX003 (ip), vehicle: saline with Tween-80): 94 % of control
T/C (dose: 3000.0 mg/kg/injection, schedule: Q04DX003 (ip), vehicle: saline with Tween-80): 94 % of control and 104 % of control
T/C (dose: 3200.0 mg/kg/injection, schedule: Q01DX005 (ip), vehicle: saline with Tween-80): 91 % of control

CN(C)/N=N/c1nc[nH]c1C(N)=O
T/C (dose: 3.12 mg/kg/injection, schedule: Q01DX005 (ip), vehicle: saline with Tween-80): 120 % of control
T/C (dose: 6.25 mg/kg/injection, schedule: Q01DX005 (ip), vehicle: saline with Tween-80): 114 % of control
T/C (dose: 12.5 mg/kg/injection, schedule: Q01DX005 (ip), vehicle: Klucel (hydroxypropylcellulose) (HPC)): 115 % of control
T/C (dose: 16.0 mg/kg/injection, schedule: Q01DX005 (ip), vehicle: saline with Tween-80): 111 % of control
T/C (dose: 25.0 mg/kg/injection, schedule: Q01DX005 (ip), vehicle: Klucel (hydroxypropylcellulose) (HPC)): 114 % of control
T/C (dose: 50.0 mg/kg/injection, schedule: Q01DX005 (ip), vehicle: Klucel (hydroxypropylcellulose) (HPC)): 120 % of control
T/C [1]: 156 % of control
T/C [2]: 155 % of control

c1ccc([C@H]2CN3CCSC3=N2)cc1
T/C (dose: 10.0 mg/kg/injection, schedule: Q01DX005 (ip), vehicle: saline): 114 % of control
T/C (dose: 20.0 mg/kg/injection, schedule: Q01DX005 (ip), vehicle: saline): 107 % of control
T/C (dose: 40.0 mg/kg/injection, schedule: Q01DX005 (ip), vehicle: saline): 110 % of control

CCC(=O)O[C@H]1CC[C@H]2[C@@H]3[C@@H](C)CC4=CC(=O)CC[C@]4(C)[C@H]3CC[C@]12C
T/C (dose: 32.0 mg/kg/injection, schedule: Q01DX005 (ip), vehicle: saline with Tween-80): 99 % of control and 106 % of control
T/C (dose: 64.0 mg/kg/injection, schedule: Q01DX005 (ip), vehicle: saline with Tween-80): 97 % of control and 106 % of control
T/C [2]: 97 % of control and 101 % of control
T/C (dose: 256.0 mg/kg/injection, schedule: Q01DX005 (ip), vehicle: saline with Tween-80): 101 % of control and 89 % of control
T/C (dose: 512.0 mg/kg/injection, schedule: Q01DX005 (ip), vehicle: saline with Tween-80): 93 % of control and 100 % of control
T/C (dose: 768.0 mg/kg/injection, schedule: Q01DX005 (ip), vehicle: saline with Tween-80): 94 % of control

COc1cc([C@@H]2c3cc4c(cc3[C@@H](OC3OC5COC(C)OC5C(O)C3O)[C@H]3COC(=O)[C@H]23)OCO4)cc(OC)c1O (stereo not given in full)
T/C (dose: 0.5 mg/kg/injection, schedule: Q01DX005 (ip), vehicle: suspension in saline): 101 % of control
T/C (dose: 1.0 mg/kg/injection, schedule: Q01DX005 (ip), vehicle: suspension in saline): 100 % of control
T/C (dose: 2.0 mg/kg/injection, schedule: Q01DX005 (ip), vehicle: suspension in saline): 110 % of control and 114 % of control
T/C (dose: 4.0 mg/kg/injection, schedule: Q01DX005 (ip), vehicle: suspension in saline): 112 % of control and 120 % of control
T/C (dose: 16.0 mg/kg/injection, schedule: Q01DX005 (ip), vehicle: suspension in saline): 102 % of control

CN(C)C1=CC(=O)C(N(C)C)=CC1=O
T/C (dose: 12.5 mg/kg/injection, schedule: Q01DX005 (ip), vehicle: saline): 105 % of control
T/C (dose: 25.0 mg/kg/injection, schedule: Q01DX005 (ip), vehicle: saline): 101 % of control
T/C (dose: 50.0 mg/kg/injection, schedule: Q01DX005 (ip), vehicle: saline): 100 % of control
T/C (dose: 100.0 mg/kg/injection, schedule: Q01DX005 (ip), vehicle: saline): 97 % of control

O=NN(CCCl)C(=O)NC1CCCCC1
T/C (dose: 1.5 mg/kg/injection, schedule: Q01DX009 (ip), vehicle: Klucel (hydroxypropylcellulose) (HPC)): 110 % of control
T/C (dose: 2.4 mg/kg/injection, schedule: Q01DX001 (ip), vehicle: other): 98 % of control
T/C (dose: 4.0 mg/kg/injection, schedule: Q01DX009 (ip), vehicle: Klucel (hydroxypropylcellulose) (HPC)): 241 % of control
T/C (dose: 4.7 mg/kg/injection, schedule: Q01DX001 (ip), vehicle: other): 102 % of control
T/C (dose: 5.18 mg/kg/injection, schedule: Q01DX005 (ip), vehicle: Klucel (hydroxypropylcellulose) (HPC)): 154 % of control
T/C (dose: 6.0 mg/kg/injection, schedule: Q01DX009 (ip), vehicle: Klucel (hydroxypropylcellulose) (HPC)): 213 % of control
T/C (dose: 8.0 mg/kg/injection, schedule: Q01DX009 (ip), vehicle: Klucel (hydroxypropylcellulose) (HPC)): 241 % of control
T/C (dose: 8.64 mg/kg/injection, schedule: Q01DX005 (ip), vehicle: Klucel (hydroxypropylcellulose) (HPC)): 244 % of control
T/C (dose: 9.5 mg/kg/injection, schedule: Q01DX001 (ip), vehicle: other): 121 % of control
T/C (dose: 12.0 mg/kg/injection, schedule: Q01DX009 (ip), vehicle: Klucel (hydroxypropylcellulose) (HPC)): 326 % of control
T/C (dose: 13.0 mg/kg/injection, schedule: Q01DX001 (ip), vehicle: Klucel (hydroxypropylcellulose) (HPC)): 181 % of control
T/C (dose: 14.4 mg/kg/injection, schedule: Q01DX005 (ip), vehicle: Klucel (hydroxypropylcellulose) (HPC)): 357 % of control
T/C (dose: 16.0 mg/kg/injection, schedule: Q01DX009 (ip), vehicle: Klucel (hydroxypropylcellulose) (HPC)): 104 % of control
T/C (dose: 18.9 mg/kg/injection, schedule: Q01DX001 (ip), vehicle: other): 171 % of control
T/C (dose: 21.6 mg/kg/injection, schedule: Q01DX001 (ip), vehicle: Klucel (hydroxypropylcellulose) (HPC)): 193 % of control
T/C (dose: 24.0 mg/kg/injection, schedule: Q01DX005 (ip), vehicle: Klucel (hydroxypropylcellulose) (HPC)): 357 % of control
T/C (dose: 24.0 mg/kg/injection, schedule: Q01DX009 (ip), vehicle: Klucel (hydroxypropylcellulose) (HPC)): 315 % of control
T/C (dose: 32.0 mg/kg/injection, schedule: Q01DX001 (ip), vehicle: saline + alcohol): 233 % of control
T/C (dose: 36.0 mg/kg/injection, schedule: Q01DX001 (ip), vehicle: Klucel (hydroxypropylcellulose) (HPC)): 363 % of control
T/C (dose: 37.8 mg/kg/injection, schedule: Q01DX001 (ip), vehicle: other): 331 % of control
T/C (dose: 40.0 mg/kg/injection, schedule: Q01DX005 (ip), vehicle: Klucel (hydroxypropylcellulose) (HPC)): 154 % of control
T/C (dose: 60.0 mg/kg/injection, schedule: Q01DX001 (ip), vehicle: Klucel (hydroxypropylcellulose) (HPC)): 363 % of control
T/C (dose: 64.0 mg/kg/injection, schedule: Q01DX001 (ip), vehicle: saline + alcohol): 324 % of control
T/C (dose: 100.0 mg/kg/injection, schedule: Q01DX001 (ip), vehicle: Klucel (hydroxypropylcellulose) (HPC)): 363 % of control
T/C (dose: 128.0 mg/kg/injection, schedule: Q01DX001 (ip), vehicle: saline + alcohol): 90 % of control

O=[n+]1c2ccccc2n([O-])c2cc(Cl)ccc21
T/C (dose: 12.5 mg/kg/injection, schedule: Q01DX005 (ip), vehicle: saline with Tween-80): 100 % of control
T/C (dose: 25.0 mg/kg/injection, schedule: Q01DX005 (ip), vehicle: saline with Tween-80): 106 % of control
T/C (dose: 50.0 mg/kg/injection, schedule: Q01DX005 (ip), vehicle: saline with Tween-80): 95 % of control
T/C [1]: 89 % of control
